Results as given in patent US4618669A, “S-(carbamoyl-phenylselenyl) derivatives of glutathione and of aminomercaptocarboxylic acids” (A. Nattermann & Cie GmbH, priority 1984, dated 1986).

Assay: Glutathione-peroxidase-like activity, reaction rates by the method of A. Wendel
Type: biochemical
Conditions: relative to S-(2-phenylcarbamoyl-phenylselenyl) glutathione, taken as 100%; tert-butylhydroperoxide; in vitro
Method: The measuring of the glutathione peroxidase-like activity is carried out by the method of A. Wendel (A. Wendel, Methods in Enzymology, vol. 77, 325-333 (1981)). In this experiment, the reaction of the co-substrate nicotine […]-dinucleotide-phosphate is measured. The reducing agent in this case is not glutathione, but the […] containing aminoacid which has been used for the synthesis of the respective compounds. […] In in vitro-experiments, the catalysis of the peroxidase destruction has been examined. It was found, that the compounds of the present invention can replace the glutathioneperoxidase. [drawing 5] The reaction rates were measured by the method of A. Wendel (A. Wendel, Methods in Enzymology, vol. 77, pages 325-333 (1981)).

Going from N[C@@H](CS[Se]c1ccccc1C(=O)NCc1ccccc1)C(=O)O [S-(2-Benzylcarbamoyl-phenylselenyl)-L-cysteine] to N[C@@H](CS[Se]c1ccccc1C(=O)Nc1ccccc1)C(=O)O [S-(2-Phenylcarbamoyl-phenylselenyl)-L-cysteine], the “catalytic activity (%)” value rises from 56% to 210%.

Compared with NC(CCC(=O)NC(CS[Se]c1cc(F)ccc1C(=O)Nc1ccccc1)C(=O)NCC(=O)O)C(=O)O [S-(2-Phenylcarbamoyl-5-fluoro-phenylselenyl)-L-glutathione], NC(CCC(=O)NC(CS[Se]c1cc(Cl)ccc1C(=O)Nc1ccccc1)C(=O)NCC(=O)O)C(=O)O [S-(2-phenylcarbamoyl-5-chlor-phenylselenyl)-L-glutathione] is higher in “catalytic activity (%)” value: 92% for the first, 99% for the second.

First: N[C@@H](CCC(=O)N[C@@H](CS[Se]c1ccccc1C(=O)Nc1ccccc1)C(=O)NCC(=O)O)C(=O)O [S-(2-Phenylcarbamoyl-phenylselenyl)-L-glutathione]
Second: NC(CCC(=O)NC(CS[Se]c1ccccc1C(=O)Nc1ccccc1Cl)C(=O)NCC(=O)O)C(=O)O [S-[2-(2-chlorphenylcarbamoyl)-phenylselenyl]-L-glutathione]
The “catalytic activity (%)” value of the first is higher: 100% for the first, 39% for the second.

Going from CC(=O)N[C@@H](CS[Se]c1ccccc1C(=O)Nc1ccccc1)C(=O)O [S-(2-Phenylcarbamoyl-phenylselenyl)-N-acetyl-L-cysteine] to CC(=O)N[C@@H](CS[Se]c1ccccc1C(=O)Nc1ccc(F)cc1)C(=O)O [S-[2-(4-fluorophenylcarbamoyl)-phenylselenyl]-N-acetyl-L-cysteine], the “catalytic activity (%)” value rises from 40% to 61%.

Compared with COc1ccc(C(=O)Nc2ccccc2)c([Se]SCC(NC(=O)CCC(N)C(=O)O)C(=O)NCC(=O)O)c1 [S-(2-phenylcarbamoyl-5-methoxy-phenylselenyl)-L-glutathione], COc1ccc(NC(=O)c2ccccc2[Se]SCC(NC(=O)CCC(N)C(=O)O)C(=O)NCC(=O)O)cc1 [S-[2-(4-Methoxyphenylcarbamoyl)-phenylselenyl]-L-glutathione] is higher in “catalytic activity (%)” value: 63% for the first, 124% for the second.

First: COc1cccc(C(=O)Nc2ccccc2)c1[Se]SC[C@H](N)C(=O)O [S-(2-phenylcarbamoyl-6-methoxy-phenylselenyl)-L-cysteine]
Second: COc1cccc(C(=O)Nc2ccccc2)c1[Se]SCC(NC(=O)CCC(N)C(=O)O)C(=O)NCC(=O)O [S-(2-phenylcarbamoyl-6-methoxy-phenylselenyl)-L-glutathione]
The “catalytic activity (%)” value of the first is higher: 440% for the first, 225% for the second.

Compared with CC(C)(S[Se]c1ccccc1C(=O)Nc1ccccc1)[C@@H](N)C(=O)O [S-(2-phenylcarbamoyl-phenylselenyl)-D-penicillamine], COc1ccccc1NC(=O)c1ccccc1[Se]SCC(NC(=O)CCC(N)C(=O)O)C(=O)NCC(=O)O [S--[2-(2-methoxyphenylcarbamoyl)-phenylselenyl]-L--glutathione] is higher in “catalytic activity (%)” value: 25% for the first, 37% for the second.

Compared with N[C@@H](CCC(=O)N[C@@H](CS[Se]c1ccccc1C(=O)Nc1ccc(Cl)c(Cl)c1)C(=O)NCC(=O)O)C(=O)O [S-[2-(3,4-Dichlorophenylcarbamoyl)-phenylselenyl]-L-glutathione], NC(CCC(=O)NC(CS[Se]c1ccccc1C(=O)Nc1ccc(Cl)cc1)C(=O)NCC(=O)O)C(=O)O [S-[2-(4-Chlorophenylcarbamoyl)-phenylselenyl]-L-glutathione] is higher in “catalytic activity (%)” value: 21% for the first, 116% for the second.

First: NC(CCC(=O)NC(CS[Se]c1ccccc1C(=O)Nc1cccc(F)c1)C(=O)NCC(=O)O)C(=O)O [S-[2-(3-fluorophenylcarbamoyl)-phenylselenyl]-L-glutathione]
Second: NC(CCC(=O)NC(CS[Se]c1ccccc1C(=O)Nc1ccc(C(F)(F)F)cc1)C(=O)NCC(=O)O)C(=O)O [S-[2-(4-trifluormethylphenylcarbamoyl)-phenylselenyl]-L-glutathione]
The “catalytic activity (%)” value of the first is higher: 113% for the first, 49% for the second.

With NC(CCC(=O)NC(CS[Se]c1ccccc1C(=O)Nc1ccc([N+](=O)[O-])cc1)C(=O)NCC(=O)O)C(=O)O [S-[2-(4-nitrophenylcarbamoyl)-phenylselenyl]-L-glutathione] the “catalytic activity (%)” value was 121%.

Assay: as above
Type: biochemical
Conditions: 1 millimolar concentration of glutathione with tert-butylhydroperoxide

With N[C@@H](CCC(=O)N[C@@H](CS[Se]c1ccccc1C(=O)Nc1ccccc1)C(=O)NCC(=O)O)C(=O)O [S-(2-Phenylcarbamoyl-phenylselenyl)-L-glutathione] the reaction rate was 1,17×10^6 units per mol.
